Test results taken from patent publication US10421718B2, “EBNA1 inhibitors and their method of use” (priority 2013, dated 2019).

Molecular target: T1, His-EBNA1 (DNA binding domain of EBNA1, amino acids 459-607) (Epstein-Barr virus, UniProt P03211)
T1 construct: made in house; host or cells: E. coli
Test: Inhibition of 5′-biotin-oPL4624 binding to His-EBNA1 using Alpha Screen technology
Conditions: Alpha Screen Activity (IC50, inhibition of 5′-biotin-oPL4624 binding to His-EBNA1), 15 nM His-EBNA1, 0.2 nM bt-oPL4624, 2 hr room temperature
How it was run: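 His-tagged EBNA1 DNA-binding domain (aa 459-607, E. coli-expressed) at 15 nM with 0.2 nM biotinylated self-complementary oligo, streptavidin donor and nickel acceptor beads, in 25 mM Tris pH 7.2, 160 mM NaCl, 1 mM MgCl2. Compound 3.2 nM-100 μM final; AlphaScreen read after 2 h at room temperature, one-site dose-response fit.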

T1 sequence (P03211 459-607): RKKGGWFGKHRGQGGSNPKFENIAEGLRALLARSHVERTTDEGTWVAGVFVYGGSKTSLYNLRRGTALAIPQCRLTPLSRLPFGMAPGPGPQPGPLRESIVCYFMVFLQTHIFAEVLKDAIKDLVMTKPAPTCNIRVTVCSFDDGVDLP

Structure (SMILES): O=C(O)c1cccc(C#Cc2cccc(CNS(=O)(=O)C3CC3)c2)c1-n1cccc1 [Entry 165, 3-{2-[3-(cyclopropanesulfonamidomethyl)phenyl]ethynyl}-2-(1H-pyrrol-1-yl)benzoic acid]
- IC50: < 1 µM

Structure (SMILES): COc1cccc(-c2c(C#Cc3c[nH]c4ncccc34)cccc2C(=O)O)c1 [Entry 166, 2-(3-methoxyphenyl)-3-(2-{1H-pyrrolo[2,3-b]pyridin-3-yl}ethynyl)benzoic acid]
- IC50: 10 to 100 µM

Structure (SMILES): Cn1ncc2ccc(-c3c(C#Cc4c[nH]c5ncccc45)cccc3C(=O)O)cc21 [Entry 167, 2-(1-methyl-1H-indazol-6-yl)-3-(2-{1H-pyrrolo[2,3-b]pyridin-3-yl}ethynyl)benzoic acid]
- IC50: 10 to 100 µM

Structure (SMILES): Cc1nc2cc(-c3c(C#Cc4c[nH]c5ncccc45)cccc3C(=O)O)ccc2s1 [Entry 168, 2-(2-methyl-1,3-benzothiazol-5-yl)-3-(2-{1H-pyrrolo[2,3-b]pyridin-3-yl}ethynyl)benzoic acid]
- IC50: 10 to 100 µM

Structure (SMILES): Cn1ncc2ccc(-c3c(C#Cc4cscn4)cccc3C(=O)O)cc21 [Entry 170]
- IC50: 1 to 10 µM

Structure (SMILES): Cn1ccc2cc(-c3c(C#Cc4cscn4)cccc3C(=O)O)ccc21 [Entry 171]
- IC50: 1 to 10 µM

Structure (SMILES): O=C(O)c1cccc(C#Cc2cscn2)c1-c1ccncc1 [Entry 172]
- IC50: 10 to 100 µM

Structure (SMILES): Cc1nc2cc(-c3c(C#Cc4cscn4)cccc3C(=O)O)ccc2s1 [Entry 173]
- IC50: 10 to 100 µM

Structure (SMILES): O=C(O)c1cccc(C#Cc2ccncc2)c1-c1c[nH]c2ccccc12 [Entry 174, 2-(1H-indol-3-yl)-3-[2-(pyridin-4-yl)ethynyl]benzoic acid]
- IC50: 1 to 10 µM

Structure (SMILES): CN(C)c1ccc(-c2c(C#Cc3ccncc3)cccc2C(=O)O)cc1 [Entry 175, 2-[4-(dimethylamino)phenyl]-3-[2-(pyridin-4-yl)ethynyl]benzoic acid]
- IC50: 10 to 100 µM

Structure (SMILES): CN1CCOc2cc(-c3c(C#Cc4ccncc4)cccc3C(=O)O)ccc21 [Entry 176, 2-(4-methyl-3,4-dihydro-2H-1,4-benzoxazin-7-yl)-3-[2-(pyridin-4-yl)ethynyl]benzoic acid]
- IC50: 10 to 100 µM

Structure (SMILES): O=C(O)c1cccc(C#Cc2ccncc2)c1-c1ccccc1 [Entry 177, 2-phenyl-3-[2-(pyridin-4-yl)ethynyl]benzoic acid]
- IC50: 100 to 1000 µM

Structure (SMILES): O=C(O)c1cccc(C#Cc2cc(C(=O)O)c3cc[nH]c3c2)c1 [Entry 178, 6-(3-carboxy-phenylethynyl)-1H-indole-4-carboxylic acid]
- IC50: 1 to 10 µM

Structure (SMILES): NC(=O)c1cc(C#Cc2cccc(C(=O)O)c2)cc2[nH]ccc12 [Entry 179, 3-(4-carbamoyl-1H-indol-6-ylethynyl)-benzoic acid]
- IC50: 1 to 10 µM

Structure (SMILES): NC(=O)c1cccc(C#Cc2cccc(C(=O)O)c2)c1 [Entry 180, 3-(3-carbamoyl-phenylethynyl)-benzoic acid]
- IC50: < 1 µM

Structure (SMILES): O=C(O)c1cccc(C#Cc2cn(S(=O)(=O)c3ccccc3)c3ccccc23)c1 [Entry 181, 3-(1-benzenesulfonyl-1H-indol-3-ylethynyl)-benzoic acid]
- IC50: 10 to 100 µM

Structure (SMILES): O=C(O)c1cccc(C#Cc2c[nH]c3ccccc23)c1 [Entry 182, 3-(1H-indol-3-ylethynyl)-benzoic acid]
- IC50: 10 to 100 µM

Structure (SMILES): COC(=O)c1cccc(C#Cc2cccc(C(=O)O)c2)c1 [Entry 183, 3-(3-carboxy-phenylethynyl)-benzoic acid methyl ester]
- IC50: 100 to 1000 µM

Structure (SMILES): COc1cc(C#Cc2cccc(C(=O)O)c2)cc(C(N)=O)c1 [Entry 184, 3-(3-carbamoyl-5-methoxy-phenylethynyl)-benzoic acid]
- IC50: 10 to 100 µM

Structure (SMILES): COc1ccc(-c2c(C#Cc3ccncc3)cccc2C(=O)O)cc1O [Entry 185, 3′-hydroxy-4′-methoxy-6-pyridin-4-ylethynyl-biphenyl-2-carboxylic acid]
- IC50: 100 to 1000 µM

Structure (SMILES): COc1cc(O)cc(-c2c(C#Cc3ccncc3)cccc2C(=O)O)c1 [Entry 186, 5′-hydroxy-3′-methoxy-6-pyridin-4-ylethynyl-biphenyl-2-carboxylic acid]
- IC50: 10 to 100 µM

Structure (SMILES): O=C(O)c1cccc(C#Cc2ccncc2)c1-c1cc[nH]n1 [Entry 187, 2-(1H-pyrazol-3-yl)-3-pyridin-4-ylethynyl-benzoic acid]
- IC50: 10 to 100 µM

Structure (SMILES): O=C(O)c1cccc(C#Cc2ccncc2)c1-c1cn[nH]c1 [Entry 188, 2-(1H-pyrazol-4-yl)-3-pyridin-4-ylethynyl-benzoic acid]
- IC50: 100 to 1000 µM

Structure (SMILES): Cc1noc(C)c1-c1c(C#Cc2ccncc2)cccc1C(=O)O [Entry 189, 2-(3,5-dimethyl-isoxazol-4-yl)-3-pyridin-4-ylethynyl-benzoic acid]
- IC50: 10 to 100 µM

Structure (SMILES): Cc1nn(C)c(C)c1-c1c(C#Cc2ccccc2)cccc1C(=O)O [Entry 190, 3-phenylethynyl-2-(1,3,5-trimethyl-1H-pyrazol-4-yl)-benzoic acid]
- IC50: 100 to 1000 µM

Structure (SMILES): Cc1ccc(C)n1-c1c(C#CC(C)(C)O)cccc1C(=O)O [Entry 191, 2-(2,5-dimethyl-pyrrol-1-yl)-3-(3-hydroxy-3-methyl-but-1-ynyl)-benzoic acid]
- IC50: 10 to 100 µM

Structure (SMILES): Cc1ccc(C)n1-c1c(C#Cc2ccncc2)cccc1C(=O)O [Entry 192, 2-(2,5-dimethyl-pyrrol-1-yl)-3-pyridin-4-ylethynyl-benzoic acid]
- IC50: 10 to 100 µM

Structure (SMILES): Cc1ccc(C)n1-c1c(C#Cc2cccc(C(N)=O)c2)cccc1C(=O)O [Entry 193, 3-(3-carbamoyl-phenylethynyl)-2-(2,5-dimethyl-pyrrol-1-yl)-benzoic acid]
- IC50: 1 to 10 µM

Structure (SMILES): Cc1ccc(C)n1-c1c(C#Cc2cccc(C(=O)O)c2)cccc1C(=O)O [Entry 194, 3-(3-carboxy-phenylethynyl)-2-(2,5-dimethyl-pyrrol-1-yl)-benzoic acid]
- IC50: < 1 µM

Structure (SMILES): Cc1ccc(C)n1-c1c(C#Cc2cccc(CO)c2)cccc1C(=O)O [Entry 195, 2-(2,5-dimethyl-pyrrol-1-yl)-3-(3-hydroxymethyl-phenylethynyl)-benzoic acid]
- IC50: 10 to 100 µM

Structure (SMILES): Cc1ccc(C)n1-c1c(C#Cc2c[nH]c3ncccc23)cccc1C(=O)O [Entry 196, 2-(2,5-dimethyl-pyrrol-1-yl)-3-(1H-pyrrolo[2,3-b]pyridin-3-ylethynyl)-benzoic acid]
- IC50: 1 to 10 µM

Structure (SMILES): Cc1ccc(C)n1-c1c(C#CC(O)c2ccccc2)cccc1C(=O)O (stereo not shown) [Entry 197, 2-(2,5-dimethyl-pyrrol-1-yl)-3-(3-hydroxy-3-phenyl-prop-1-ynyl)-benzoic acid]
- IC50: 10 to 100 µM

Structure (SMILES): CC(=O)Nc1cccc(C#Cc2cccc(C(=O)O)c2-n2c(C)ccc2C)c1 [Entry 198, 3-(3-acetylamino-phenylethynyl)-2-(2,5-dimethyl-pyrrol-1-yl)-benzoic acid]
- IC50: 10 to 100 µM

Structure (SMILES): Cc1ccc(C)n1-c1c(C#CC2CC2)cccc1C(=O)O [Entry 199, 3-cyclopropylethynyl-2-(2,5-dimethyl-pyrrol-1-yl)-benzoic acid]
- IC50: 1 to 10 µM

Structure (SMILES): COc1cccc(C#Cc2cccc(C(=O)O)c2-n2c(C)ccc2C)c1 [Entry 200, 2-(2,5-dimethyl-pyrrol-1-yl)-3-(3-methoxy-phenylethynyl)-benzoic acid]
- IC50: 1 to 10 µM

Structure (SMILES): O=C(O)c1cccc(C#Cc2ccccc2)c1-c1ccc2cn[nH]c2c1 [Entry 201, 2-(1H-indazol-6-yl)-3-phenylethynyl-benzoic acid]
- IC50: 10 to 100 µM

Structure (SMILES): O=C(O)c1cccc(C#Cc2ccccc2)c1-c1ccc2c(c1)OCO2 [Entry 202, 2-benzo[1,3]dioxol-5-yl-3-phenylethynyl-benzoic acid]
- IC50: 10 to 100 µM

Structure (SMILES): O=C(O)c1cccc(C#Cc2ccccc2)c1-c1ccc2cnccc2c1 [Entry 203, 2-isoquinolin-6-yl-3-phenylethynyl-benzoic acid]
- IC50: 10 to 100 µM

Structure (SMILES): O=C(O)c1cccc(C#Cc2ccccc2)c1-c1cc2ccccc2o1 [Entry 204, 2-benzofuran-2-yl-3-phenylethynyl-benzoic acid]
- IC50: 1 to 10 µM

Structure (SMILES): O=C(O)c1cccc(C#Cc2ccccc2)c1-c1cccc2cccnc12 [Entry 205, 3-phenylethynyl-2-quinolin-8-yl-benzoic acid]
- IC50: 10 to 100 µM

Structure (SMILES): Nc1ncc(-c2c(C#Cc3ccccc3)cccc2C(=O)O)cn1 [Entry 206, 2-(2-amino-pyrimidin-5-yl)-3-phenylethynyl-benzoic acid]
- IC50: 100 to 1000 µM

Structure (SMILES): CN(C)Cc1ccc(-c2c(C#Cc3ccccc3)cccc2C(=O)O)cc1 [Entry 207, 4′-dimethylaminomethyl-6-phenylethynyl-biphenyl-2-carboxylic acid]
- IC50: 100 to 1000 µM

Structure (SMILES): Nc1ccc(C#Cc2cccc(C(=O)O)c2-c2ccc3cc[nH]c3c2)cc1 [Entry 208, 3-(4-amino-phenylethynyl)-2-(1H-indol-6-yl)-benzoic acid]
- IC50: 1 to 10 µM

Structure (SMILES): O=C(O)c1ccc(C#Cc2cccc(C(=O)O)c2-c2ccc3cc[nH]c3c2)cc1 [Entry 209, 3-(4-carboxy-phenylethynyl)-2-(1H-indol-6-yl)-benzoic acid]
- IC50: < 1 µM

Structure (SMILES): COc1ccc(C#Cc2cccc(C(=O)O)c2-c2ccc3cc[nH]c3c2)cc1 [Entry 210, 2-(1H-indol-6-yl)-3-(4-methoxy-phenylethynyl)-benzoic acid]
- IC50: 1 to 10 µM

Structure (SMILES): NC(=O)c1ccc(C#Cc2cccc(C(=O)O)c2-c2ccc3cc[nH]c3c2)cc1 [Entry 211, 3-(4-carbamoyl-phenylethynyl)-2-(1H-indol-6-yl)-benzoic acid]
- IC50: 1 to 10 µM

Structure (SMILES): O=C(O)c1cccc(C#Cc2ccc(C(=O)N3CCNCC3)cc2)c1-c1ccc2cc[nH]c2c1 [Entry 212, 2-(1H-indol-6-yl)-3-[4-(piperazine-1-carbonyl)-phenylethynyl]-benzoic acid]
- IC50: 1 to 10 µM

Structure (SMILES): CC(=O)Nc1ccc(C#Cc2cccc(C(=O)O)c2-c2ccc3cc[nH]c3c2)cc1 [Entry 213, 3-(4-acetylamino-phenylethynyl)-2-(1H-indol-6-yl)-benzoic acid]
- IC50: 10 to 100 µM

Structure (SMILES): O=C(Nc1ccc(C#Cc2cccc(C(=O)O)c2-c2ccc3cc[nH]c3c2)cc1)c1cccnc1 [Entry 214, 2-(1H-indol-6-yl)-3-{4-[(pyridine-3-carbonyl)-amino]phenylethynyl}-benzoic acid]
- IC50: < 1 µM
